Target: T1, human TREM2 (Homo sapiens, UniProt Q9NZC2)
T1 construct: expressed in transfected cells; host or cells: HEK293T
Assay: hTREM2 agonist potency by cellular Syk phosphorylation (AlphaLisa) in HEK293T-hTREM2 cells
Assay type: cell-based
Conditions: HEK293 cells expressing human TREM2 and DAP12, pSyk AlphaLisa, 45 minutes at room temperature
Experimental: In Vitro Measurement of Triggering Receptor Expressed on Myeloid Cells 2 Activity Using Cellular Phosphorylation of Spleen Tyrosine Kinase (“Syk”) Assays
Measurement of TREM2 agonist potency was done using a HEK cell line expressing human TREM2 and DAP12 (HEK293T-hTREM2 cells). Binding of small molecules to, and activation of, TREM2 increases the phosphorylation of Syk. The resultant levels of Syk phosphorylation are measured using a commercial AlphaLisa reagent kit. To perform the assay, HEK-hTREM2 cells were plated at 14,000 cells per well in a 384 well plate, in 25 μL of complete growth media and incubated at 37° C., 5% CO2 for 20-24 hours.
Prior to the assay, test compounds were diluted in the 384 well plates in assay buffer and allowed to equilibrate for 30 minutes. Growth media was removed from cell plates by inversion on blotting paper, and 25 μL of test articles in assay buffer was added to cells. Cells were incubated for 45 minutes at room temperature. After 45 minutes, assay buffer was removed and 10 μL of lysis buffer was added. Plates were shaken for 20 minutes at 350 RPM at room temperature. After complete lysis, AlphaLisa reagents were added to the lysate, and fluorescence intensity was measured using a Perkin Elmer Envision plate reader. Intensities were used to generate a standard curve, and % activation was calculated. Curve fitting was performed using Prism v9 software, log (agonist) vs response-variable slope (four parameters), and EC50s were calculated from the curve fit.
The results presented in Table D have been generated with the in vitro assay described above. This assay may be used to test any of the compounds described herein to assess and characterize a compound's ability to act as an agonist of TREM2.

T1 sequence (Q9NZC2 19-230): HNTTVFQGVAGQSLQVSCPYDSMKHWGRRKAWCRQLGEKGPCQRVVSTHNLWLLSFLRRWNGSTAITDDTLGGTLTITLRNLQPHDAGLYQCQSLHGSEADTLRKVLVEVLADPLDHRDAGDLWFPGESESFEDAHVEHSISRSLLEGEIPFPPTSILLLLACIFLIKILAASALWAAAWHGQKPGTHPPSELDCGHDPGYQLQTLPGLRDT
T1 sequence (O43914 22-113 partner): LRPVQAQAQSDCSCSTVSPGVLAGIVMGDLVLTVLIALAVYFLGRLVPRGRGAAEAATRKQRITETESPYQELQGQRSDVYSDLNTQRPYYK

Compound	EC50 (Table D)	EC50 (Table D-2)
Cc1nc2nc(-c3ccc(F)cc3F)cc(C3CCOC(c4cnn(C5CC5)c4)C3)c2c(=O)n1C (stereo not shown) [compound 5, 5-(2-(1-cyclopropyl-1H-pyrazol-4-yl)tetrahydro-2H-pyran-4-yl)-7-(2,4-difluorophenyl)-2,3-dimethylpyrido[2,3-d]pyrimidin-4(3H)-one]	500 to 3000 nM	
Cn1ncc2c(-c3ccc(F)cc3F)nc(C3CCO[C@@H](c4cnn(C5CC5)c4)C3)nc2c1=O (stereo partly drawn) [I-146, 2-[(2R)-2-(1-cyclopropylpyrazol-4-yl)tetrahydropyran-4-yl]-4-(2,4-difluorophenyl)-7-methyl-pyrimido[4,5-d]pyridazin-8-one]		50 to 500 nM
Cc1nc2cc(N3CCOC(c4cc[nH]c(=O)c4)C3)nc(C34CC(C(F)(F)F)(C3)C4)c2c(=O)n1C (stereo not shown) [compound 4, 2,3-dimethyl-7-(2-(2-oxo-1,2-dihydropyridin-4-yl)morpholino)-5-(3-(trifluoromethyl)bicyclo[1.1.1]pentan-1-yl)pyrido[4,3-d]pyrimidin-4(3H)-one]	≤ 50 nM	
C[C@@H]1CN(c2nc(-c3ccc(C(F)(F)F)nc3)c3cnn(C)c(=O)c3n2)C[C@H](c2cnn(C3CC3)c2)O1 [I-198, 2-[(2S, 6R)-2-(1-cyclopropylpyrazol-4-yl)-6-methyl-morpholin-4-yl]-7-methyl-4-[6-(trifluoromethyl)-3-pyridyl]pyrimido[4,5-d]pyridazin-8-one]		≤ 50 nM
Cc1cc2c(-c3ccc(C(F)(F)F)cc3F)nc(N3C[C@@H](C)O[C@@H](c4cnn(C5CC5)c4)C3)cc2c(=O)n1C [I-79, 7-((2S,6R)-2-(1-cyclopropyl-1H-pyrazol-4-yl)-6-methylmorpholino)-5-(2-fluoro-4-(trifluoromethyl)phenyl)-2,3-dimethyl-2,6-naphthyridin-1 (2H)-one]		≤ 50 nM
Cc1nc2c(-c3ccc(F)cc3F)cc(N3C[C@@H](C)O[C@@H](c4cnn(C5CC5)c4)C3)nc2c(=O)n1C [I-110, 6-((2S,6R)-2-(1-cyclopropyl-1H-pyrazol-4-yl)-6-methylmorpholino)-8-(2,4-difluorophenyl)-2,3-dimethylpyrido[3,2-d]pyrimidin-4 (3H)-one]		≤ 50 nM
Cc1ccc(-c2nc(N3C[C@@H](C)O[C@@H](c4cnn(C5CC5)c4)C3)nc3c(=O)n(C)ncc23)c(F)c1 [I-203, 2-((2S,6R)-2-(1-cyclopropyl-1H-pyrazol-4-yl)-6-methylmorpholino)-4-(2-fluoro-4-methylphenyl)-7-methylpyrimido[4,5-d]pyridazin-8 (7H)-one]		≤ 50 nM
Cc1nc2c(-c3ccc(Cl)cc3F)nc(N3C[C@@H](C)O[C@@H](c4cnn(C5CC5)c4)C3)nc2c(=O)n1C [I-152, 8-(4-chloro-2-fluoro-phenyl)-6-[(2S,6R)-2-(1-cyclopropylpyrazol-4-yl)-6-methyl-morpholin-4-yl]-2,3-dimethyl-pyrimido[5,4-d]pyrimidin-4-one]		≤ 50 nM
Cc1nc2c(C3CCCCC3)nc(N3C[C@@H](C)O[C@@H](c4cnn(C5CC5)c4)C3)nc2c(=O)n1C [I-208, 8-cyclohexyl-6-((2S,6R)-2-(1-cyclopropyl-1H-pyrazol-4-yl)-6-methylmorpholino)-2,3-dimethylpyrimido[5,4-d]pyrimidin-4 (3H)-one]		≤ 50 nM
Cc1nc2c(-c3ccc(C(F)(F)F)cc3F)nc(N3C[C@@H](C)O[C@@H](c4cnn(C5CC5)c4)C3)nc2c(=O)n1C [I-136, 6-[(2S,6R)-2-(1-cyclopropylpyrazol-4-yl)-6-methyl-morpholin-4-yl]-8-[2-fluoro-4-(trifluoromethyl)phenyl]-2,3-dimethyl-pyrimido[5,4-d]pyrimidin-4-one]		≤ 50 nM
Cc1nc2cc(N3CCOC(c4cc[nH]c(=O)c4)C3)nc(-c3ccc(F)cc3F)c2c(=O)n1C (stereo not shown) [compound 1, 5-(2,4-difluorophenyl)-2,3-dimethyl-7-(2-(2-oxo-1,2-dihydropyridin-4-yl)morpholino)pyrido[4,3-d]pyrimidin-4(3H)-one]	50 to 500 nM	
Cc1nc2c(-c3ccc(F)cc3F)nc([C@H]3CCO[C@@H](c4cnn(C5CC5)c4)C3)nc2c(=O)n1C [I-105, 6-((2R,4S)-2-(1-cyclopropyl-1H-pyrazol-4-yl)tetrahydro-2H-pyran-4-yl)-8-(2,4-difluorophenyl)-2,3-dimethylpyrimido[5,4-d]pyrimidin-4 (3H)-one]		50 to 500 nM
COCn1cc([C@H]2CN(c3nc(-c4ccc(Cl)cc4F)c4cnn(C)c(=O)c4n3)C[C@@H](C)O2)cn1 [I-178]		≤ 50 nM
CC1Nc2c(nc([C@H]3CCO[C@@H](c4cnn(C5CC5)c4)C3)nc2-c2ccc(F)cc2F)C(=O)N1C (stereo partly shown) [I-173]		500 to 3000 nM
Cc1nc2c(-c3ccc(C(F)(F)F)cc3F)nc([C@H]3CCO[C@@H](c4cnn(C5CC5)c4)C3)nc2c(=O)n1C [I-134, 6-[(2R,4S)-2-(1-cyclopropylpyrazol-4-yl)tetrahydropyran-4-yl]-8-[2-fluoro-4-(trifluoromethyl)phenyl]-2,3-dimethyl-pyrimido[5,4-d]pyrimidin-4-one]		≤ 50 nM
C[C@@H]1CN(c2nc(-c3ccc(F)cc3F)c3cnn(C)c(=O)c3n2)C[C@H](c2cnn(C3CC3)c2)O1 [I-141, 2-[(2S, 6R)-2-(1-cyclopropylpyrazol-4-yl)-6-methyl-morpholin-4-yl]-4-(2,4-difluorophenyl)-7-methyl-pyrimido[4,5-d]pyridazin-8-one]		≤ 50 nM
Cc1cc([C@H]2CN(c3nc(-c4ccc(F)cc4F)c4nc(C)n(C)c(=O)c4n3)C[C@@H](C)O2)ccn1 [I-213, 8-(2,4-difluorophenyl)-2,3-dimethyl-6-[(2R, 6S)-2-methyl-6-(2-methyl-4-pyridyl)morpholin-4-yl]pyrimido[5,4-d]pyrimidin-4-one]		≤ 50 nM
Cc1nc2cc(N3CCO[C@@H](c4cc[nH]c(=O)c4)C3)nc(-c3ccc(F)cc3F)c2c(=O)n1C [compound 2, (S)-5-(2,4-difluorophenyl)-2,3-dimethyl-7-(2-(2-oxo-1,2-dihydropyridin-4-yl)morpholino)pyrido[4,3-d]pyrimidin-4(3H)-one]	50 to 500 nM	
Cc1cc([C@H]2CC(c3nc(-c4ccc(Cl)cc4F)c4nc(C)n(C)c(=O)c4n3)CCO2)ccn1 (stereo partly drawn) [I-188, 8-(4-chloro-2-fluoro-phenyl)-2,3-dimethyl-6-[(2R)-2-(2-methyl-4-pyridyl)tetrahydropyran-4-yl]pyrimido[5,4-d]pyrimidin-4-one]		≤ 50 nM
O=c1c2nc(C3CCOC(c4cnn(C5CC5)c4)C3)nc(-c3ccc(C(F)(F)F)cc3F)c2cnn1C1CC1 (stereo not shown) [I-115]		500 to 3000 nM
Cn1ncc2c(-c3ccc(F)cc3F)nc(C3CCO[C@@H](c4cnn(C5CC5)c4)C3)cc2c1=O (stereo partly drawn) [I-63, 7-[(2R)-2-(1-cyclopropylpyrazol-4-yl)tetrahydropyran-4-yl]-5-(2,4-difluorophenyl)-2-methyl-pyrido[3,4-d]pyridazin-1-one]		50 to 500 nM
Cn1ncc2c(-c3ccc(Cl)cc3F)nc(N3C[C@@H](c4cnn(C5CC5)c4)O[C@@H](C4CC4)C3)nc2c1=O (single isomer, unassigned) [I-184]		≤ 50 nM
C[C@@H]1CN(c2cc3c(=O)n(C)ncc3c(-c3ccc(F)cc3F)n2)C[C@H](c2cnn(C3CC3)c2)O1 [I-58, 7-[(2S,6R)-2-(1-cyclopropylpyrazol-4-yl)-6-methyl-morpholin-4-yl]-5-(2,4-difluorophenyl)-2-methyl-pyrido[3,4-d]pyridazin-1-one]		≤ 50 nM
Cc1nc2c(-c3ccc(F)cc3F)nc([C@@H]3CCO[C@@H](c4cnn(C5CC5)c4)C3)nc2c(=O)n1C [I-168]		50 to 500 nM
Cc1nc2cc(N3CCO[C@H](c4cc[nH]c(=O)c4)C3)nc(-c3ccc(F)cc3F)c2c(=O)n1C [compound 3, (R)-5-(2,4-difluorophenyl)-2,3-dimethyl-7-(2-(2-oxo-1,2-dihydropyridin-4-yl)morpholino)pyrido[4,3-d]pyrimidin-4(3H)-one]	3000 to 100000 nM	
C[C@@H]1CN(c2cc(-c3ccc(Cl)cc3F)c3cnn(C)c(=O)c3n2)C[C@H](c2cnn(C3CC3)c2)O1 [I-100, 4-(4-chloro-2-fluorophenyl)-2-((2S,6R)-2-(1-cyclopropyl-1H-pyrazol-4-yl)-6-methylmorpholino)-7-methylpyrido[2,3-d]pyridazin-8 (7H)-one]		50 to 500 nM
Cc1nc2c(-c3ccc(C(F)(F)F)cc3F)nc([C@@H]3CCO[C@@H](c4cnn(C5CC5)c4)C3)nc2c(=O)n1C [I-132, 6-[(2R,4R)-2-(1-cyclopropylpyrazol-4-yl)tetrahydropyran-4-yl]-8-[2-fluoro-4-(trifluoromethyl)phenyl]-2,3-dimethyl-pyrimido[5,4-d]pyrimidin-4-one]		50 to 500 nM
Cc1cc2c(-c3ccc(C(F)(F)F)cc3F)nc([C@H]3CCO[C@@H](c4cnn(C5CC5)c4)C3)cc2c(=O)n1C [I-95, 7-((2R,4S)-2-(1-cyclopropyl-1H-pyrazol-4-yl)tetrahydro-2H-pyran-4-yl)-5-(2-fluoro-4-(trifluoromethyl)phenyl)-2,3-dimethyl-2,6-naphthyridin-1 (2H)-one]		≤ 50 nM

Source: patent US20250042897A1, “HETEROCYCLIC COMPOUNDS AS TRIGGERING RECEPTOR EXPRESSED ON MYELOID CELLS 2 AGONISTS AND METHODS OF USE” (Vigil Neuroscience, Inc., priority 2021, published 2025)
